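All cell lines were grown in 96-well plates and treated with compound for 48 hours. TGI denotes the concentration required for complete inhibition of growth.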
Experiments:
Assay in all cases: NCI anticancer screen, dose series, 48 h
SN12C renal = test system: SN12C renal
IGROV1 ovarian = test system: IGROV1 ovarian
M14 melanoma = test system: M14 melanoma
COLO 205 colon = test system: COLO 205 colon
KM12 colon = test system: KM12 colon
EKVX NSCLC = test system: EKVX NSCLC
ACHN renal = test system: ACHN renal
SK-OV-3 ovarian = test system: SK-OV-3 ovarian
RPMI-8226 leukemia = test system: RPMI-8226 leukemia
BT-549 breast = test system: BT-549 breast
SW-620 colon = test system: SW-620 colon
DU-145 prostate = test system: DU-145 prostate
OVCAR-8 ovarian = test system: OVCAR-8 ovarian
SF-268 CNS = test system: SF-268 CNS
HCC-2998 colon = test system: HCC-2998 colon
HOP-92 NSCLC = test system: HOP-92 NSCLC
HL-60(TB) leukemia = test system: HL-60(TB) leukemia
RXF 393 renal = test system: RXF 393 renal
TK-10 renal = test system: TK-10 renal

Structure (SMILES) | TGI (SN12C renal) [µM] | TGI (IGROV1 ovarian) [µM] | TGI (M14 melanoma) [µM] | TGI (COLO 205 colon) [µM] | TGI (KM12 colon) [µM] | TGI (EKVX NSCLC) [µM] | TGI (ACHN renal) [µM] | TGI (SK-OV-3 ovarian) [µM] | TGI (RPMI-8226 leukemia) [µM] | TGI (BT-549 breast) [µM] | TGI (SW-620 colon) [µM] | TGI (DU-145 prostate) [µM] | TGI (OVCAR-8 ovarian) [µM] | TGI (SF-268 CNS) [µM] | TGI (HCC-2998 colon) [µM] | TGI (HOP-92 NSCLC) [µM] | TGI (HL-60(TB) leukemia) [µM] | TGI (RXF 393 renal) [µM] | TGI (TK-10 renal) [µM]
C=CCN(c1cc(OCc2ccccc2)c2c(c1)c(C)cn2S(=O)(=O)c1ccccc1)S(C)(=O)=O | > 100 | > 100 | > 100 | > 100 | > 100 | > 100 | > 100 | > 100 | > 100 | > 100 | > 100 | > 100 | > 100 | > 100 | > 100 | > 100 | > 100 | > 100 | > 100
Cc1ccc(C2SC(N)=Nc3c2c(C)nn3C(=O)c2ccc(Cl)cc2)cc1 (stereo unspecified) | > 10 | > 10 | > 10 | > 10 | > 10 | > 10 | > 10 | > 10 | > 10 | > 10 | > 10 | > 10 | > 10 | > 10 | > 10 | > 10 | > 10 | > 10 | > 10
Cc1cc(S(=O)(=O)Nc2nc(N)nc(N(C)C)n2)c(SC(C(=O)O)c2ccccc2)cc1Cl (stereo unspecified) | > 10 | > 10 | > 10 | > 10 | > 10 | > 10 | > 10 | > 10 | > 10 | > 10 | > 10 | > 10 | > 10 | > 10 | > 10 | > 10 | > 10 | > 10 | > 10
Cc1ccc(N=Nc2c(C)nn(C(=O)CC(=O)Nc3ccc(Cl)cc3)c2C)cc1C | > 100 | > 100 | > 100 | > 100 | > 100 | > 100 | > 100 | 51.2 | > 100 | > 100 | > 100 | > 100 | > 100 | > 100 | > 100 | 64.3 | 56 | 67.2 | > 100
O=[N+]([O-])c1cc(C(F)(F)F)ccc1S(=O)(=O)N[C@@H]1CCCC[C@H]1NS(=O)(=O)c1ccc(C(F)(F)F)cc1[N+](=O)[O-] | 12.6 | 7.5 | 8.95 | 6.77 | 12.1 | 93.3 | 11.2 | 71.7 | > 22.3 | 8.16 | 53.8 | > 75.7 | 20.2 | 7.24 | > 39.9 | 8.31 | 3.74 | > 28.1 | > 100
O=c1c2ccccc2n2n1Cc1ccccc1C2 | > 100 | > 100 |  | > 100 | > 100 | > 100 | > 100 | > 100 | > 100 | > 100 | > 100 | > 100 | > 100 | > 100 | > 100 | > 100 | > 100 | > 100 | > 100
CCOC(=O)c1nc2cc(C(F)(F)F)ccc2nc1Oc1ccc(C(=O)OC)cc1 | > 100 | > 100 | > 100 | > 100 | > 100 | > 100 | > 100 |  | > 100 | > 100 | > 100 | > 100 | > 100 | > 100 | > 100 | > 100 | > 100 | > 100 | > 100
Cc1ccc(-c2n[nH]c(=O)n2N2C(=O)C=CC2=O)cc1 | > 100 | > 100 | > 100 | > 100 |  | > 100 |  | > 100 |  | > 100 |  | > 100 | > 100 | > 100 | > 100 |  | > 100 | > 100 | > 100
Nc1nc(Sc2ccc([N+](=O)[O-])cn2)c2[nH]cnc2n1 | 29.4 | 77.9 | 24.1 | 39 | > 38.1 | 50.2 | > 73.5 | > 51.1 | > 100 | 52.1 | > 100 | 43.8 | > 80.4 | > 100 | 96.8 | 38.7 | > 59.4 | > 30.4 | > 100
Cc1ccc(C(=O)c2[nH]c(Nc3ccc(Cl)cc3)c(C(=S)Nc3ccccc3)c2N)cc1 | 27.4 | 15 | 35.8 | 2.84 | 18.8 | 19 | 10.7 | 27.3 | 18 | 20.5 | 37.7 | 24.8 | 18.1 | 23.3 | 5.31 | 28 | > 100 | 17.4 | 16.8
CCN(CC)c1nc(=O)c(C(=O)C(C)(C)C)c(C(C)(C)C)o1 | > 100 | > 100 | > 100 | > 100 | > 100 | > 100 | > 100 | > 100 | > 100 | > 100 | > 100 | > 100 | > 100 | > 100 | > 100 | > 100 | > 100 | > 100 | > 100
COc1cc(S(=O)(=O)Nc2ccc(-c3csc(/N=C\C=C\c4ccccc4)n3)cc2)ccc1Cl | > 100 | > 100 | > 100 | > 100 | > 100 | > 100 | > 100 | > 100 | > 100 | > 100 | > 100 | > 100 | > 100 | > 100 | > 100 | 75.9 | > 100 | 80.2 | > 100
